Bridge positions count the residues as written; N and C are the ends. Ends that are not written are not given here. Peptide text beside a SMILES is read from it.
How the values were obtained:
PS:C4BP complex [1] = biological target: T1, PS:C4BP complex (Homo sapiens, UniProt P04003+P20851); test: Peptide inhibition of binding of b-C4BP to PS-coated wells
T1 construct: Purified human C4BP was obtained from 5 liters (1) of human citrated plasma; from tissue; host or cells: human citrated plasma (C4BP); protein S per Schwarz et al
T1 sequence (P04003 49-597): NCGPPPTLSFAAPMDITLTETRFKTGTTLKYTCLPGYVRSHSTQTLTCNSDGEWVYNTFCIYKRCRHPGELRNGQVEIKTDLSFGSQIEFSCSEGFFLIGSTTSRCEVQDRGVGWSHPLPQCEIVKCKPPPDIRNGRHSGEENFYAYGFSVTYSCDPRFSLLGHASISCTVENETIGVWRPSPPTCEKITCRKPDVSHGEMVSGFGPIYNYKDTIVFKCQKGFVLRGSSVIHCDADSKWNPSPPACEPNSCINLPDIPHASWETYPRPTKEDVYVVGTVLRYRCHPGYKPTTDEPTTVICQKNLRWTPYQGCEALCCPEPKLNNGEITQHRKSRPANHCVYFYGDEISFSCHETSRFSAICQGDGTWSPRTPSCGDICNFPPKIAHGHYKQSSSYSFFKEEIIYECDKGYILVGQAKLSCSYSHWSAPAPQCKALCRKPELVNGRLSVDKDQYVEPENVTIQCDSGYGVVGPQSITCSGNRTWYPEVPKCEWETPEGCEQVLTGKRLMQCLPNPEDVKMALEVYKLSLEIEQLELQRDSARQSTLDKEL
T1 sequence (P20851 18-252): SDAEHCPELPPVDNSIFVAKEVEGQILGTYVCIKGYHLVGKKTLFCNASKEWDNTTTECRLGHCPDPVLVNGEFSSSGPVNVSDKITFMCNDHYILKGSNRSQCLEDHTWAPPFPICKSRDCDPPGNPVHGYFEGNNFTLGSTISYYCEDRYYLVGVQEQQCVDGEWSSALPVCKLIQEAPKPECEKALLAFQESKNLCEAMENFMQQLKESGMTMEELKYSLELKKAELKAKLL
Method: An alternative approach was used to test the ability of the peptides, PSP-loop and PSP-428K, in comparison with that seen with the PSP-12 peptide, in inhibiting the binding of C4BP to PS. For this assay, the microtiter wells were coated with purified PS diluted to a concentration of 10 µg/ml in carbonate-coating buffer as described above. The wells were maintained to allow the PS to bind to the well walls. After the maintenance period, the wells were blocked also as described above. The selected PSP peptides were separately admixed at various concentrations ranging from 0 - 500 µM with biotinylated-C4BP (b-C4BP) at a concentration of 1 µg/ml. The admixtures were maintained on a fluid phase plate for 2 hours at room temperature to form peptide-C4BP complexes.
Fifty µl of the complexed admixtures were separately admixed to the prepared C4BP-coated wells and maintained for 1 hour at room temperature. Thereafter, the plate was washed and processed for developing as described above.

PS:C4BP complex [2] = biological target: T1, PS:C4BP complex; test: Fluid-phase peptide inhibition of b-PS binding to C4BP, detected on anti-C4BP polyclonal antibody-coated plates
Method: (§1) An alternative approach was used to test the ability of the peptides, PSP-loop, PSP-424K and PSP-428K, in comparison with that seen with the PSP-12 peptide, in inhibiting the binding of PS to C4BP, the result of which was detected on polyclonal antibody-coated plates. For this assay, C4BP, biotinylated-PS (b-PS) and PSP peptides were admixed together at the respective concentrations of 3 µg/ml, 0.6 µg/ml and at a range of 0 - 500 µM (V:V:V). The admixtures were maintained for 2 hours at room temperature on a fluid phase plate to allow the binding and/or inhibition thereof of PS to C4BP by the PS-derived peptides. After the maintenance period, 50 µl of the admixture were separately admixed to wells previously coated with 10 µg/ml of anti-C4BP IgG polyclonal antibody. The admixtures were maintained for 1 hour at room temperature to allow for the binding of C4BP to C4BP-antibody-coated plates. The binding of biotinylated complexes to the antibody-coated plates was detected as described in Example 5Aii.

PS:C4BP complex [3] = biological target: T1, PS:C4BP complex; test: Fluid-phase peptide inhibition of PS binding to b-C4BP, detected on MAb S-7-coated plates
Method: as §1, with “monoclonal” for “polyclonal”, “biotinylated-C4BP (b-C4BP), PS” for “C4BP, biotinylated-PS (b-PS)”, “0.5” for “3”, “1.0” for “0.6”, “MAb S-7 (ATCC No. HB 80819).” for “anti-C4BP IgG polyclonal antibody.”, “MAb S-7-antibody-coated” for “C4BP-antibody-coated”

PS:C4BP complex [4] = biological target: T1, PS:C4BP complex; test: Peptide Inhibition Assay: binding of b-PS to C4BP in solid phase; conditions: subsequent experiments
Method: Each of the peptides produced as described in Example 1 and listed in Table 1 was analyzed for its ability to inhibit the binding of native protein S in liquid-phase to C4BP in solid-phase.
Microtiter wells of a 96 well plate were coated with 50 µl of 10 µg/ml purified C4BP in carbonate buffer (0.02 M Na2CO3, pH 9.0, 0.02% Na-Azide). After blocking with 10% BSA in TBS, 50 µl of different concentrations of peptides diluted in washing buffer (TBS, 0.2% BSA, 5mM CaCl, 0.02% Tween 20) were separately admixed to C4BP-coated wells. After 2 hours at room temperature, 50 µl of a solution of biotinylated protein S, were admixed to each well to form a second binding admixture having a final concentration of 2 µg/ml. The plate was agitated and the samples were incubated 1 hour at room temperature. The samples were discarded and the wells were washed 3 times with washing buffer. To each well, 50 µl of strepavidin-alkaline-phosphatase (1 µg/ml washing buffer) were admixed and allowed to incubate for 30 minutes at room temperature. The strepavidin-alkaline-phosphatase was then discarded and the wells were washed 6 times with washing buffer. The resulting optical densities of the reaction solutions were read as described before in Example 2C.
Results of the assay are reported as percent inhibition of C4BP binding. Percent of inhibition of C4BP binding is defined as: I = 100% - 100 x (deltaT /deltaC ) [formula] • where I is expressed as a percent; and • where 100% = delta/min of the amount of b-PS which specifically bound to C4BP-coated wells in the absence of any competing PS-peptide; and • where deltaT = the change in absorbance (405 nm) in the presence of competing PS-peptide; and • where deltaC = the change in absorbance (405 nm) in the absence of competing PS-peptide.

C4BP = biological target: T2, C4BP (Homo sapiens, UniProt P04003+P20851); conditions: in vitro; cited from earlier work
T2 sequence (P04003 49-597): T1 sequence (P04003 49-597)
T2 sequence (P20851 18-252): T1 sequence (P20851 18-252)

C4b binding protein [5] = biological target: T3, C4b binding protein (human, UniProt P04003 49-597; P20851 18-252); test: Competition ELISA, peptide preincubated with b-C4BP, PS-coated wells
T3 construct: mature; The beta chain is added from general knowledge; Biotinylated (b-C4BP) in some assays; also called C4BP; purified human C4BP
T3 sequence (looked up) 1: T1 sequence (P04003 49-597)
T3 sequence (looked up) 2: T1 sequence (P20851 18-252)

C4b binding protein [6] = biological target: T3, C4b binding protein; test: Fluid-phase competition of b-C4BP, PS and peptide; capture on MAb S-7
C4b binding protein [7] = biological target: T3, C4b binding protein; test: Fluid-phase competition of C4BP, b-PS and peptide; capture on anti-C4BP polyclonal IgG

**Q.** For `CC[C@H](C)[C@H](NC(=O)CNC(=O)[C@@H](N)CO)C(=O)N[C@@H](CCCCN)C(=O)N[C@@H](CCCCN)C(=O)N[C@H](C(=O)N[C@H](C(=O)N[C@@H](CCC(N)=O)C(=O)N[C@@H](CCC(=O)O)C(=O)N[C@@H](CCCCN)C(=O)N[C@@H](CCC(N)=O)C(=O)N[C@@H](CC(N)=O)C(=O)N[C@@H](CCCCN)C(=O)N[C@@H](CS)C(N)=O)[C@@H](C)CC)[C@@H](C)CC` [PSP-424K] (H-SGIKKIIQEKQNKC-NH2), which IC90 (PS:C4BP complex [1]; b-C4BP 1 µg/ml, PS-coated wells, peptide 0 - 500 µM, read-out: IC90) is on record?
**A.** Its IC90 is roughly 250 µM.

**Q.** What about the IC50 (PS:C4BP complex [1]; b-C4BP 1 µg/ml, PS-coated wells, peptide 0 - 500 µM, read-out: half-maximal inhibitory concentration (IC50)) of the same molecule?
**A.** The IC50 was roughly 50 µM.

**Q.** And the “inhibition of the binding of b-PS to C4BP” value (PS:C4BP complex [2]; compared with PSP-loop)?
**A.** Its value is “also inhibitory but with lower effectiveness”.

**Q.** What about the IC50 (PS:C4BP complex [3]; b-C4BP 0.5 µg/ml, PS 1.0 µg/ml, peptide 0 - 500 µM) of the same molecule?
**A.** The IC50 was roughly 50 µM.

**Q.** And the IC90 (PS:C4BP complex [3]; b-C4BP 0.5 µg/ml, PS 1.0 µg/ml, peptide 0 - 500 µM, read-out: IC90)?
**A.** Its IC90 is roughly 250 µM.

**Q.** With `CC[C@H](C)[C@@H]1NC(=O)[C@H](CO)NC(=O)[C@H](C)NC(=O)CNC(=O)[C@H](CCC(N)=O)NC(=O)[C@H](CCCCN)NC(=O)[C@H](CCSC)NC(=O)[C@H](CC(C)C)NC(=O)[C@H](CC(N)=O)NC(=O)[C@H](Cc2c[nH]c3ccccc23)NC(=O)[C@H](CO)NC(=O)[C@H](CCCNC(=N)N)NC(=O)[C@H]([C@@H](C)CC)NC(=O)[C@@H](N)CSSC[C@@H](C(N)=O)NC(=O)[C@H](Cc2c[nH]cn2)NC(=O)[C@H](CCCCN)NC(=O)[C@H](CC(N)=O)NC(=O)[C@H](CCC(N)=O)NC(=O)[C@H](CCCCN)NC(=O)[C@H](CCC(=O)O)NC(=O)[C@H](CCC(N)=O)NC(=O)[C@H]([C@@H](C)CC)NC(=O)[C@H]([C@@H](C)CC)NC(=O)[C@H](CCC(=O)O)NC(=O)[C@H](CCCCN)NC1=O` [PSP-loop] (H-CIRSWNLMKQGASIKEIIQEKQNKHC-NH2; disulfide 1-26; N-terminus assumed) as the molecule, how does the “peptide concentration that completely inhibits the binding of PS to C4BP” value (PS:C4BP complex [4]) read?
**A.** The value was “approximately 250 µM”.

**Q.** And the IC90 (PS:C4BP complex [1])?
**A.** Its IC90 is 50 µM.

**Q.** And the IC90 (PS:C4BP complex [2])?
**A.** Its IC90 is roughly 400 µM.

**Q.** What about the IC90 (PS:C4BP complex [3]) of the same molecule?
**A.** The IC90 was roughly 100 µM.

**Q.** For “GVQLDLDEAI [synthetic peptide derived from the carboxy terminal region of protein S (residues 605 to 614 of mature PS)]”, which “effect on the interaction of protein S with C4BP” value (C4BP) is on record?
**A.** Its value is “inhibits the interaction of protein S with C4BP in vitro”.

B1: PSP-loop (peptide)
peptide: CIRSWNLMKQGASIKEIIQEKQNKHC-NH2
modifications: cysteine pairing not given here
notes: also called loop peptide
**Q.** What does the source list for B1?
**A.** IC50 (C4b binding protein [5]): ~15 µM; IC90 (C4b binding protein [5]): 50 µM; IC50 (C4b binding protein [6]): ~35 µM; IC50 (C4b binding protein [7]): ~40 µM

Source: patent EP0592600B1, “PROTEINS S POLYPEPTIDES AND USES THEREOF” (THE SCRIPPS RESEARCH INSTITUTE, priority 1991, dated 1993)
